In PMC10306110 (Cell, 2023):

What was measured:
[1] = tested on: wild-type (WT) and VMAT2 heterozygous (HET) mice; assay: Tail suspension in VMAT2 mice; type: in vivo, mouse; conditions: for anti-depressant-like effects 24 h post-injection: VMAT2 HET, 2 mg/kg ‘8090, 0.5 mg/kg ‘8219, 20 mg/kg Flx, 30 mg/kg Ibo; for immobility times: acute (30 min), 20 mg/kg Flx versus vehicle, 30 mg/kg Ibo versus 1 mg/kg ‘8090 and 0.5 mg/kg ‘8219
[2] = tested on: learned helpless C57BL/6J mice; assay: Learned helplessness: sucrose preference; type: in vivo, mouse; conditions: for overall sucrose preference at testing: 40 mg/kg Ibo
[3] = tested on: learned helpless C57BL/6J mice; assay: Learned helplessness: tail suspension; type: in vivo, mouse; conditions: for immobility upon treatment-withdrawal / anti-depressant-like activities in tail suspension: 40 mg/kg Ibo; for immobility upon treatment-withdrawal: 10 mg/kg Flx; for anti-depressant-like activities in tail suspension: 10 mg/kg Flx daily
[4] = tested on: learned helpless C57BL/6J mice; assay: Learned helplessness: shock escape; type: in vivo, mouse; conditions: for shock-escape performance: 40 mg/kg Ibo, 10 mg/kg Flx
[5] = tested on: learned helpless C57BL/6J mice; assay: Sensitivity to foot-shock; type: in vivo, mouse; conditions: days 13 and 22
[6] = tested on: learned helpless C57BL/6J mice; assay: Open field motor activity; type: in vivo, mouse; conditions: day 12; 2 or 5 mg/kg ‘8090, 5 mg/kg ‘8219; 40 mg/kg Ibo, 10 mg/kg Flx
[7] = tested on: learned helpless C57BL/6J mice; assay: Elevated zero maze; type: in vivo, mouse; conditions: for locomotion in the zero maze versus vehicle: 5 mg/kg ‘8090, 40 mg/kg Ibo
[8] = tested on: learned helpless C57BL/6J mice; assay: Elevated 8-arm radial maze; type: in vivo, mouse
SERT-S277C = SERT-S277C (Rattus norvegicus, UniProt P31652, C109A/C15A/C21A/C357I/C622A/S277C); assay: Cys277 accessibility; type: biochemical
SERT-Y107C [9] = target: T1, SERT-Y107C (Rattus norvegicus, UniProt P31652, C109A/Y107C); conditions: cited from earlier work
C56BL/6J mice = assay: Elevated plus-maze assay; type: in vivo, mouse; conditions: ‘8219 and ‘8090 10 mg/kg/day for 10 days; paroxetine 10 mg/kg single
morphine-treated mice = assay: Naloxone-precipitated opioid withdrawal assay; type: in vivo, mouse; conditions: 10 mg/kg i.p.
SERT [10] = target: T2, SERT (Rattus norvegicus, UniProt P31652); assay: [125I]β-CIT displacement binding in membranes from SERT-transfected HeLa cells
rSERT = rSERT (Rattus norvegicus, UniProt P31652); assay: [3H]5-HT transport into RBL cells or SERT-transfected HeLa cells; type: cell-based
SERT [11] = target: T2, SERT; assay: Efflux of accumulated [3H]5-HT induced by extracellular compounds; type: cell-based; conditions: saturating concentrations
SERT-Y107C [12] = target: T1, SERT-Y107C; assay: Cys107 accessibility; type: cell-based; conditions: saturating concentration (10x KD)
hSERT = hSERT (Homo sapiens, UniProt P31645); type: cell-based
5-HT1A receptor = target: T3, 5-HT1A receptor (Homo sapiens, UniProt P08908); assay: GloSensor cAMP Gi agonist activity assay; type: cell-based; conditions: concentration-response
T3 sequence (P08908 1-422): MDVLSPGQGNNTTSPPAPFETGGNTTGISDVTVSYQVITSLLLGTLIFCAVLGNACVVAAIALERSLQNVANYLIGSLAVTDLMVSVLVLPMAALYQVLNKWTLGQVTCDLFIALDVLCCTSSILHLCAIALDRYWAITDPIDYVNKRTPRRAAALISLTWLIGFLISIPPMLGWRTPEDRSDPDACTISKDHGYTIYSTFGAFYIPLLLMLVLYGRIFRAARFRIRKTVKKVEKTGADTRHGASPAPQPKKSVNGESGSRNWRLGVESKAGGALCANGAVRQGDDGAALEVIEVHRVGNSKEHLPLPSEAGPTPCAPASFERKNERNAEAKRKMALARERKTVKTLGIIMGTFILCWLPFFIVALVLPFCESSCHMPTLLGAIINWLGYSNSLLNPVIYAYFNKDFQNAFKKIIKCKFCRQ

[13] = Pharmacokinetics, brain exposure after i.p. dosing; type: in vivo; conditions: 10 mg/Kg intraperitoneal (i.p.), mouse
human DAT = human DAT (Homo sapiens, UniProt Q01959); assay: Neurotransmitter transporter uptake assay, DAT; conditions: read-out: Ki against DAT; cell-based functional assay
human NET = human NET (Homo sapiens, UniProt P23975); assay: Neurotransmitter transporter uptake assay, NET; conditions: read-out: Ki against NET; cell-based functional assay
SERT [14] = target: T2, SERT; conditions: cited from earlier work
[15] = presence of Na+, cocaine 10 µM, ibogaine 10 µM, ‘8219 0.05 µM, ‘8090 0.15 µM

Chain of hSERT (P31645 whole entry): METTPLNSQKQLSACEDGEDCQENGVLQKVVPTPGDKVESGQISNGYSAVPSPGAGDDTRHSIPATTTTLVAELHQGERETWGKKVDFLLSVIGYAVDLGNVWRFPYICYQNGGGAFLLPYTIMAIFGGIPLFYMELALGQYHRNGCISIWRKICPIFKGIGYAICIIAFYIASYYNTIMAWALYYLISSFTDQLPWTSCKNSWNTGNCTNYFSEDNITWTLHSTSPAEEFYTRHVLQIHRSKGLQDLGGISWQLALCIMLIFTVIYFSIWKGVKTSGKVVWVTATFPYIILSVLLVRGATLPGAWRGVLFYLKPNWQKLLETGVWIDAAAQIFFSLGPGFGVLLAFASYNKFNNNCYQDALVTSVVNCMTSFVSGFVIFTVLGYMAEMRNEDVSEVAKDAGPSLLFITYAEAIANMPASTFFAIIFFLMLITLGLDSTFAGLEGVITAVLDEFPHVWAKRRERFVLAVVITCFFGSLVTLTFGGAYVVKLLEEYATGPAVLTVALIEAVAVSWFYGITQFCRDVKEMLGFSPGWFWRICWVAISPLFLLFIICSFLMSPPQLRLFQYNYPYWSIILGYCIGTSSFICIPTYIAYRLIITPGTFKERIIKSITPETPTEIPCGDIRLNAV
Chain of human NET (P23975 whole entry): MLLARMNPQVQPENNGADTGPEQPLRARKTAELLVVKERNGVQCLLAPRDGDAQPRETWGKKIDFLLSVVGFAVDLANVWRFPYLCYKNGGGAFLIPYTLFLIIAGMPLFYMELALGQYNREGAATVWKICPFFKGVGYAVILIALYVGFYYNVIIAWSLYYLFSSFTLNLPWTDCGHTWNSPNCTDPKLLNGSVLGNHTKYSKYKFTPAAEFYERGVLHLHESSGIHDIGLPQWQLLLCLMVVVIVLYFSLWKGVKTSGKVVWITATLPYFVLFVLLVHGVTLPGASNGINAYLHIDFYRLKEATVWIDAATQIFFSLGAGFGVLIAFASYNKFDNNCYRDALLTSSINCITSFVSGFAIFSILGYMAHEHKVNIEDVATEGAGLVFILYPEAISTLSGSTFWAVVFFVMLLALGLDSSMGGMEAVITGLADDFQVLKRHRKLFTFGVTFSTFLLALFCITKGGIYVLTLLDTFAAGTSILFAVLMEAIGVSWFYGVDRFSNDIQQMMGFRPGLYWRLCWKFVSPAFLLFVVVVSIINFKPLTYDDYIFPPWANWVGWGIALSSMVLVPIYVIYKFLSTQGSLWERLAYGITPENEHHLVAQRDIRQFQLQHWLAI
Chain of human DAT (Q01959 whole entry): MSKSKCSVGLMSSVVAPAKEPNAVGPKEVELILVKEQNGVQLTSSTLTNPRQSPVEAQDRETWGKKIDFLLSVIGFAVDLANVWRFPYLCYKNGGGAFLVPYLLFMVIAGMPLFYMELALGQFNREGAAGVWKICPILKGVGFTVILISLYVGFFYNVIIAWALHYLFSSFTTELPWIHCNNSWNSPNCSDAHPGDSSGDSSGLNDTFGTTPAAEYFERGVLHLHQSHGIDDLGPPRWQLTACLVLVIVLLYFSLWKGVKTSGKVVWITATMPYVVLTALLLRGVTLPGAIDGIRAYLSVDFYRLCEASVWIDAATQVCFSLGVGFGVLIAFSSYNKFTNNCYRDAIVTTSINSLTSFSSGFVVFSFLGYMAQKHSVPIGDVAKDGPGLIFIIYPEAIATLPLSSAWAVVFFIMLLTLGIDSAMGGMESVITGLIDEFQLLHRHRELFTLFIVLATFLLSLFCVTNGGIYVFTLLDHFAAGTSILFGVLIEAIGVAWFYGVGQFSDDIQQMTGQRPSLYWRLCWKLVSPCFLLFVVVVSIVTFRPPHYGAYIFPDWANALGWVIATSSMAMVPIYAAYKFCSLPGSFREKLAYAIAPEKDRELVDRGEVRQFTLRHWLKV

CNCCC(Oc1ccc(C(F)(F)F)cc1)c1ccccc1 (stereo not shown) [Flx, fluoxetine]
anti-depressant-like effects 24 h post-injection [1]: maintained | immobility times ([1]; WT): increased | sucrose preference over vehicle controls on day −2 ([2]; 10 mg/kg Flx daily): enhanced preference for sucrose | overall sucrose preference at testing ([2]; 10 mg/kg Flx daily): increased overall sucrose preference | immobility upon treatment-withdrawal [3]: immobility was enhanced | anti-depressant-like activities in tail suspension [3]: transient | shock-escape performance [4]: improve shock-escape performance | reactivity to foot-shock [5]: do not affect reactivity to foot-shock | locomotion in the open field [6]: No locomotor differences were found | open area time compared to Ibo and vehicle controls ([7]; 10 mg/kg Flx): increased open area time | arm entries before repeating a first entry compared to Ibo and vehicle mice ([8]; 10 mg/kg Flx, ANCOVA): entered more arms before repeating a first entry

COC(=O)[C@H]1[C@@H](OC(=O)c2ccccc2)C[C@@H]2CC[C@H]1N2C [cocaine, reference compound]
Cys277 reactivity (cytoplasmic pathway) versus control (SERT-S277C; [15]): decreased Cys277 reactivity | Cys107 accessibility (extracellular pathway) (SERT-Y107C [9]): renders it more accessible

Fc1ccc([C@@H]2CCNC[C@H]2COc2ccc3c(c2)OCO3)cc1 [paroxetine, reference compound]
open arm entries and time compared to vehicle (C56BL/6J mice): spent more time exploring the open arms | naloxone-precipitated morphine withdrawal symptoms (morphine-treated mice): significantly reduced naloxone-precipitated jumps and rearings

Fc1ccc(-c2csc(N3CCNCC3)n2)cc1 [‘8090]
Ki (SERT [10]; displacement of [125I]β-CIT): 0.014 µM | increase of inhibitory potency (binding) by Na+ (SERT [10]; displacement of [125I]β-CIT): 15 fold | Kd (SERT [10]; read-out: KD values used for kon calculation): 0.015 µM | Vmax for 5-HT transport in presence of inhibitor (rSERT; 0.15 μM ‘8219, 0.7 μM ‘8090, HeLa cells transfected with rSERT, control 1.7 ± 0.25): 0.69 ± 0.1 pmol/m/well | type of inhibition of 5-HT influx (rSERT; decreased Vmax with minimal effect on KM): non-competitive inhibition | SERT substrate activity (stimulation of [3H]5-HT efflux) (SERT [11]): not SERT substrates | Cys277 reactivity (cytoplasmic pathway) versus control (SERT-S277C; absence of Na+ (replaced by NMDG), 2 µM): had no influence on the pathway | Cys277 reactivity (cytoplasmic pathway) versus control (SERT-S277C; [15]): decreased reactivity slightly | Cys107 reactivity (extracellular pathway) (SERT-Y107C [12]): decreased Cys107 reactivity | dissociation rate (hSERT; HEK-293 cells expressing hSERT pre-incubated with 50 nM ‘8219 or 75 nM ‘8090, washout): 1.82 ± 0.09 × 10^−3 s^−1 | half time for equilibration of binding (hSERT; at concentrations giving half-maximal inhibition, calculated): less than 7 minutes | Gi agonist activity at 5-HT1A relative to reference agonist 5-HT (5-HT1A receptor): about 6% | brain Cmax [13]: 12000 ng/g | half-life ([13]; brain): 44.3 min | anti-depressant-like effects 24 h post-injection [1]: maintained | immobility 24 h post-injection ([1]; WT, 1 mg/kg compared to 0.5 mg/kg): significantly decreased immobility | sucrose preference compared to vehicle ([2]; daily i.p. dosing, 2 or 5 mg/kg ‘8090, 5 mg/kg ‘8219): significant preference for sucrose compared to vehicle | immobility times on days 0, 1, and 3 ([3]; 2 or 5 mg/kg ‘8090, 5 mg/kg ‘8219 daily): reduced | shock-escape performance on day 23 versus controls ([4]; 1 mg/kg ‘8090 group): higher | shock-escape performance (numbers of escapes) on days 10 and 23 ([4]; 5 mg/kg): increased over vehicle | reactivity to foot-shock [5]: do not affect reactivity to foot-shock | locomotion in the open field [6]: no effects were observed | locomotion in the zero maze versus vehicle [7]: increased | time in and entry into the open areas versus vehicle ([7]; 2 or 5 mg/kg ‘8090, 5 mg/kg ‘8219, day 6): spent more time and entered the open areas more readily than vehicle-treated mice | open arm entries and time compared to vehicle (C56BL/6J mice): increased the percentage of entries into and the time spent exploring the open arms | arm entries before a second repeated entry versus vehicle ([8]; 2 mg/kg ‘8090 or 5 mg/kg ‘8219, day 9): entered more arms before making a second repeated entry | Ki (human DAT): 6.6 µM | Ki (human NET): 10 µM

ibogaine
Cys277 reactivity (cytoplasmic pathway) versus control (SERT-S277C; [15]): dramatically increased Cys277 reactivity | anti-depressant-like effects 24 h post-injection [1]: effects were lost | immobility times ([1]; WT): increased | overall sucrose preference at testing ([2]; 10 mg/kg Flx daily): increased overall sucrose preference | immobility upon treatment-withdrawal [3]: immobility was enhanced | anti-depressant-like activities in tail suspension [3]: transient | shock-escape performance [4]: improve shock-escape performance | locomotion in the zero maze versus vehicle [7]: decreased | locomotion in the radial maze ([8]; 40 mg/kg Ibo): suppressed locomotion | effect of Cl− on binding to SERT (SERT [14]): independent of Cl^− | effect of Na+ on binding to SERT (SERT [14]): inhibited by Na^+ | Cys107 accessibility (extracellular pathway) (SERT-Y107C [9]): decreases its accessibility
